{
  "source": "patent US20120010196A1",
  "about": "“METHODS OF TREATING NEURODEGENERATIVE DISORDERS AND DISEASES” (priority 2010, published 2012)",
  "assay_type_in_all_cases": "cell-based",
  "key": {"[1]": {"test_system": "cortical neurons cultured from wild-type mice", "test": "Immunoblotting analysis of various proteins in cultured cortical neurons (U18666A-induced changes)", "details": "pre-treatment with Y-27632", "procedure": "(§1) Neuronal cultures. Cortical and hippocampal neurons were prepared from npc1+/+ and npc1−/− embryos at embryonic day 18 (E18); time-pregnant wild-type BALB/c or npc1+/− mice were obtained either from Charles River Laboratories (San Diego, Calif.) or from our breeding colony respectively. Neurons were cultured in NeuroBasal (GIBCO, Carlsbad, Calif.) with 10% bovine serum albumin (BSA), 2% B27, and 1% glutamine for three to four days before being used.\n(§2) Treatment. For primary cultured neurons, chemicals (U18666A and inhibitors of various enzymes) were first dissolved in 10% DMSO before being diluted in cultured medium; final DMSO concentration was lower than 0.01%. For in vivo treatment, hydroxyfasudil monohydrochloride (Sigma) was dissolved in double-distilled H2O and injected subcutaneously at 10 mg/kg, twice a day from postnatal day 7 to day 28.\nImmunoprecipitation and immunoblotting procedures. For immunoprecipitation, cultured cortical neurons were lysed in lysis buffer [0.05 M Tris base, 0.9% NaCl, pH 7.6, and 0.5% Triton X-100 plus Protease Inhibitors Cocktail (1:100; EMD Biosciences) and phosphatase inhibitor cocktails (1:500; Sigma)]. Lysates were centrifuged at 16,000×g for 30 min at 4° C. Supernatant were then cleared with a mixture of protein A/Gagarose beads (each 50%) for 1 h at 4 uC, and after a brief spin, pellets were discarded. A small portion of the supernatants was used as input. The reminder of the supernatant was immunoprecipitated overnight with control IgG or Tau1 antibodies. Immunoprecipitates were captured by incubation with protein A/G-agarose beads for 3 h at 4° C. After several washes, the beads were resuspended in 2×SDS sample buffer [4% sodium dodecyl sulfate (SDS), 100 mM Tris-HCl (pH 6.8), 10% b-mercaptoethanol, 20% glycerol and 0.2% bromophenol blue] and boiled for 10 min. The resulting proteins were separated by SDS-PAGE, and transferred to polyvinylidene difluoride membranes for immunoblotting using previously described protocols.\nBecause the p-p53Δ and p-p53 bands were very close in immunoblots and the former was the predominant band, p-p53Δ levels were used as an index of p-p53 degradation. Immunoprecipitation was used to determine whether p-p53 truncation affected its association with the microtubule-associated protein tau, a protein that is abundantly and exclusively expressed in axons. p53 labeled by either anti-p-p53 or anti-p53 antibodies was immunoprecipitated by Tau1 antibodies (FIG. 5B).\nIncreased levels of p-p53Δ and p-Mdm2 were quantified using the ImageJ program (National Institutes of Health, Bethesda, Md.). The quantified levels are contained in Table 1 below."}, "[2]": {"test_system": "hippocampal neurons cultured from wild-type mice", "test": "Quantification of growth cone collapse in cultured neurons from wild-type mice (U18666A-induced)", "details": "Y-27632 10 μM pre-incubation for 2 h, then 5 μM U18666A for 2 min, DIV4; n=100 growth cones", "procedure": "as §1, §2\n(§3) Immunofluorescent staining. Hippocampal neurons were fixed with 4% paraformaldehyde in phosphate buffer (PB; pH 7.4) for 15 min. After washing with 1× phosphate buffer saline (PBS), cells were permeabilized with 0.05% Triton X-100 in 1×PBS for 15 min, and incubated with blocking buffer (3% BSA, 0.02% Triton X-100 in 1×PBS) for 15 min before being probed with primary antibodies. The following primary antibodies were used: anti-E6AP (1:1000), anti-phospho-p53 (1:250), anti-phospho-4EBP1 (1:1000), antiphospho-Mdm2 antibody (1:250), anti-phospho-p38 antibody (1:250), anti-RhoA antibody (1:1500). All primary antibodies were diluted in blocking buffer and incubated at 4° C. for 18 h. After six washes (6×10 min) with 1×PBS at room temperature, cells were incubated with secondary antibodies, Alexa488-anti-rabbit (1:500) or Alexa594-anti-mouse (1:500); both antibodies were diluted in blocking buffer and incubated at room temperature for one h. Cells were then washed with 1×PBS (6×10 min) and sealed with mounting medium (Vectashield; Vector Laboratories, Inc., Burlingame, Calif.) containing 49,69-diamidino-2-phenylindole (DAPI) to stain nuclei. Immunofluorescent signal was detected with a Nikon confocal microscope (Nikon TE 2000U with DEclipse C1 system; Melville, N.Y.).\n(§4) Quantification of growth cone morphology and immunoreactivity. Confocal images were taken using the 60× oil-immersion objective. About 20-30 images were randomly selected from each culture dish (20 mm in diameter); at least four to six dishes from three to six independent culture preparations/experiments were used for each experimental group. Within an experiment, cultures used for different experimental groups and designed for comparison were stained simultaneously and imaged with the same acquisition parameters. Quantification was done blindly by multiple researchers. Growth cones with less than 1 filopodium were considered collapsed; 100 growth cones were-quantified for each experimental group. Image J software was used to quantify immunoreactivity intensity of p-p53 and RhoA in axons and growth cones; the “total integrated density” was used instead of “average intensity”. Briefly, individual growth cones were outlined manually and the total integrated density was measured using Image J software. For quantification of immunoreactivity in axons, a 50 μm fragment of axons from the neck of growth cones towards the cell body was selected and integrated density measured."}, "[3]": {"test_system": "hippocampal neurons cultured from npc1−/− mice", "test": "Growth cone collapse in hippocampal neurons cultured from npc1−/− mice", "details": "10 μM Y-27632 for 18 h at DIV3; vehicle 80±2%; n=100 growth cones", "procedure": "as §1\n(§5) Treatment. For primary cultured neurons, chemicals (U18666A and inhibitors of various enzymes) were first dissolved in 10% DMSO before being diluted in cultured medium; final DMSO concentration was lower than 0.01%. […]\n(§6) Immunofluorescent staining. […] Immunofluorescent signal was detected with a Nikon confocal microscope (Nikon TE 2000U with DEclipse C1 system; Melville, N.Y.).\n(§7) Quantification of growth cone morphology and immunoreactivity. […] Quantification was done blindly by multiple researchers. Growth cones with less than 1 filopodium were considered collapsed; 100 growth cones were-quantified for each experimental group. Image J software was used to quantify immunoreactivity intensity of p-p53 and RhoA in axons and growth cones; the “total integrated density” was used instead of “average intensity”. Briefly, individual growth cones were outlined manually and the total integrated density was measured using Image J software. […]"}, "[4]": {"test_system": "axons and growth cones of hippocampal neurons from wild-type mice", "test": "Immunofluorescence quantification of protein levels in axons and growth cones of wild-type hippocampal neurons", "procedure": "as §1, §2, §3, §4"}, "[5]": {"test_system": "hippocampal neurons cultured from npc1−/− mice", "test": "p-p53 immunoreactivity in axons and growth cones of npc1−/− hippocampal neurons", "details": "10 μM Y-27632 for 18 h at DIV3", "procedure": "as §1, §5, §6, §7"}},
  "data": [
    {"smiles": "C[C@@H](N)[C@H]1CC[C@H](C(=O)Nc2ccncc2)CC1.Cl.Cl", "note": "[Y-27632, trans-4-[(1R)-1-Aminoethyl]-N-4-pyridinylcyclohexanecarboxamide dihydrochloride]", "values": [
      {"measurement": "effect on U18666A-induced increase in levels of phosphorylated LIM kinase (immunoblot)", "setting": "[1]", "value": "significantly reduced"},
      {"measurement": "effect on U18666A-induced increase in p38 and Mdm2 phosphorylation, protein ubiquitination and RhoA levels (immunoblot)", "setting": "[1]", "value": "did not block"},
      {"measurement": "effect on U18666A-induced p-p53 truncation (immunoblot)", "setting": "[1]", "value": "significantly reduced"},
      {"measurement": "growth cone collapse", "setting": "[2]", "value": "41±1", "unit": "%"},
      {"measurement": "growth cone collapse", "setting": "[3]", "value": "48±1", "unit": "%"},
      {"measurement": "effect on U18666A-induced decrease in p-p53 immunoreactivity in axons and growth cones", "setting": "[4]; Y-27632 10 μM 2 h pretreatment, 5 μM U18666A 2 min", "value": "reversed"},
      {"measurement": "effect on U18666A-induced reduction of \"mutant\" p53 in axons and growth cones", "setting": "[4]; pre-incubation with 10 μM Y27632", "value": "blocked"},
      {"measurement": "p-p53 immunoreactivity in axons and growth cones", "setting": "[5]", "value": "increased"}
    ]}
  ]
}
